Read-outs that look alike come from different tables or passages of the source.

Consider 7 compounds from patent US10144756B2, “Stable solid forms of regadenoson” (Euticals S.p.A., priority 2013, dated 2018).

Data set [1] can be described thus: Thermal treatment of polymorphic form A at 190-200° C. (prior-art route to amorphous form). It counts as physicochemical. The settings on record: thermal treatment at 190-200° C. Here is the method:
In U.S. Pat. No. 8,106,183 the method of preparation of an amorphous form of Regadenoson is described by heating polymorphic form A at 200° C.; this solid state, differently by polymorphic forms A-C, was not described by the authors by an X-ray diffraction spectrum in order to identify possible characteristic halo-peaks (broad peaks). This amorphous form was prepared according to U.S. Pat. No. 8,106,183 by heating the polymorphic form A over the melting point value of this substance (that for polymorphic form A is 194.5° C.). This method is not industrially applicable and leads to the formation of several side products. […] To the best of our knowledge, this is the only described method for the preparation of amorphous Regadenoson.

The conditions of data set [2]: U.S. Pat. No. 8,106,183 / WO2012149196, cited from earlier work.
Data set [3] is described as follows: HPLC stability of solid forms stored at 90% RH and 20-25° C. To be noted: for HPLC stability data (chromatographic purity): 90% RH and 20-25° C.
A short description of data set [4]: HPLC stability of solid forms stored at 80° C. in inert atmosphere. The settings on record: for HPLC stability data (chromatographic purity): 80° C. in inert atmosphere.
Test in data set [5]: not given
The source holds these as a separate data set.

With `CNC(=O)c1cnn(-c2nc(N)c3ncn([C@@H]4O[C@H](CO)[C@@H](O)[C@H]4O)c3n2)c1` [Form A, (1-{9-[(4S,2R,3R,5R)-3,4-dihydroxy-5-(hydroxymethyl)oxolan-2-yl]-6-aminopurin-2yl}pyrazol-4-yl)-N-methylcarboxamide, reference compound], in data set [1], the “decrease of chromatographic purity” value is recorded as “about 30%”. For the same compound, the “change in the color of the sample” value in data set [1] (form A is white before) is on record as “the color changes to brown”. For the same compound, the “stability of the solid form as described in the literature” value (“stability of the solid form as described” below) in data set [2] (listed as Regadenoson Form A) is “more stable than polymorphs B and C”. In addition, the HPLC stability data (chromatographic purity) in data set [3] (time 0 hours), in data set [3] (time 96 hours), in data set [4] (time 0 hours), in data set [4] (time 72 hours) and in data set [4] (time 96 hours) was 99.5% in each case.
In the case of `CNC(=O)c1cnn(-c2nc(N)c3ncn([C@@H]4O[C@H](CO)[C@@H](O)[C@H]4O)c3n2)c1` [Form D], in data set [2], the “stability of the solid form as described” value was “stable under inert conditions”.
`CNC(=O)c1cnn(-c2nc(N)c3ncn([C@@H]4O[C@H](CO)[C@@H](O)[C@H]4O)c3n2)c1` [Form E] came in with an HPLC stability data (chromatographic purity) (0 h) of 99.6%; an HPLC stability data (chromatographic purity) (72 h) of 99.4%; an HPLC stability data (chromatographic purity) (96 h) of 99.6%; an HPLC stability data (chromatographic purity) in data set [5] (0 h) of 99.6%; an HPLC stability data (chromatographic purity) in data set [5] (96 h) of 99.7%.
Take `CNC(=O)c1cnn(-c2nc(N)c3ncn([C@@H]4O[C@H](CO)[C@@H](O)[C@H]4O)c3n2)c1` [Form F, (1-{9-[(4S,2R,3R,5R)-3,4-dihydroxy-5-(hydroxymethyl)oxolan-2-yl]-6-aminopurin-2yl}pyrazol-4-yl)-N-methylcarboxamide]: the HPLC stability data (chromatographic purity) (0 h) is 99.8%; the HPLC stability data (chromatographic purity) (72 h) is 99.7%; the HPLC stability data (chromatographic purity) (96 h) worked out at 99.7%; the HPLC stability data (chromatographic purity) in data set [5] (0 h) came to 99.8%; the HPLC stability data (chromatographic purity) in data set [5] (96 h) worked out at 99.8%.
`CNC(=O)c1cnn(-c2nc(N)c3ncn([C@@H]4O[C@H](CO)[C@@H](O)[C@H]4O)c3n2)c1` [Form G, (1-{9-[(4S,2R,3R,5R)-3,4-dihydroxy-5-(hydroxymethyl)oxolan-2-yl]-6-aminopurin-2yl}pyrazol-4-yl)-N-methylcarboxamide] had an HPLC stability data (chromatographic purity) (0 h) of 99.8%; an HPLC stability data (chromatographic purity) (72 h) of 99.8%; an HPLC stability data (chromatographic purity) (96 h) of 99.8%; an HPLC stability data (chromatographic purity) in data set [5] (0 h) of 99.8%; an HPLC stability data (chromatographic purity) in data set [5] (96 h) of 99.8%.
With `CNC(=O)c1cnn(-c2nc(N)c3ncn([C@@H]4O[C@H](CO)[C@@H](O)[C@H]4O)c3n2)c1` [Halo Amorphous, (1-{9-[(4S,2R,3R,5R)-3,4-dihydroxy-5-(hydroxymethyl)oxolan-2-yl]-6-aminopurin-2yl}pyrazol-4-yl)-N-methylcarboxamide], the HPLC stability data (chromatographic purity) in data set [3] (time 0 hours), in data set [3] (time 96 hours), in data set [4] (time 0 hours), in data set [4] (time 72 hours) and in data set [4] (time 96 hours) was 99.7% throughout. Besides, the “formation of degradation products” value in data set [3] (exposed to moisture, 25° C./90% RH up to 96 hours) was “does not give origin to degradation products”; in data set [4] (dry conditions, 80° C. up to 96 hours) it was “does not give origin to degradation products”. Moreover, in data set [4] (80° C., protected atmosphere / dry conditions, up to 96 hours), the stability to heating result is on record as “stable to the heating”.
As for `CNC(=O)c1cnn(-c2nc(N)c3ncn([C@@H]4O[C@H](CO)[C@@H](O)[C@H]4O)c3n2)c1` [Polymorph C], in data set [2], the “stability of the solid form as described” value is “unstable at high temperatures”.
